Test results published in patent US10118902B2 (Sanford Burnham Prebys Medical Discovery Institute, priority 2014, dated 2018).

target: neurotensin receptor 1 (NTR1) (Homo sapiens (Human), UniProt P30989); assay: NTR1 dose response, high-content imaging beta-arrestin-GFP assay in NTR1-U2OS cells; assay type: cell-based; conditions: read-out: EC50
Sequence (P30989 whole entry, species assumed): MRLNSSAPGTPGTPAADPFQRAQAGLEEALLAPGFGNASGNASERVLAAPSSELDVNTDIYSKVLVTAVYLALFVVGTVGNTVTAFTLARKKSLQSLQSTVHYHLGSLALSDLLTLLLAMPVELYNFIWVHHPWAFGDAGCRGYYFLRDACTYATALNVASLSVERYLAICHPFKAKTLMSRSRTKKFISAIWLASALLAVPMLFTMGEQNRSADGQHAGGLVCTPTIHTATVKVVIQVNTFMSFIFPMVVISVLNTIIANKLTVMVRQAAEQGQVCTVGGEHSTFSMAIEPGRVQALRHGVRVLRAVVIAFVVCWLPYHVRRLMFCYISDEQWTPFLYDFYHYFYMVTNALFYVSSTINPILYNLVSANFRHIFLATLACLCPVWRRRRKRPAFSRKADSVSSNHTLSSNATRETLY

Row | Compound | EC50
1 | COCCN(C)c1ccc2nc(C3(C)CC3)nc(N3CCC(c4ccccc4N4CCC4)CC3)c2c1 [Example 31, [4-[4-(2-azetidin-1-yl-phenyl)-piperidin-1-yl]-2-(1-methyl-cyclopropyl)-quinazolin-6-yl]-(2-methoxy-ethyl)-methyl-amine] | > 10000 nM
2 | CN(C)CCN(C)c1ccc2nc(C3(C)CC3)nc(N3CCC(c4ccccc4N4CCC4)CC3)c2c1 [Example 35, N-[4-[4-(2-azetidin-1-yl-phenyl)-piperidin-1-yl]-2-(1-methyl-cyclopropyl)-quinazolin-6-yl]-N,N′,N′-trimethyl-ethane-1,2-diamine] | > 10000 nM
3 | CCCN(C)c1ccc2nc(C3CCCC3)nc(N3CCC(c4ccccc4OC)CC3)c2c1 [Example 40] | > 10000 nM
4 | CCN(C)c1ccc2nc(C3CC3)nc(N3CCC(c4ccccc4N4CCC4)CC3)c2c1 [Example 4, {4-[4-(2-azetidin-1-yl-phenyl)-piperidin-1-yl]-2-cyclopropyl-quinazolin-6-yl}-ethyl-methyl-amine] | > 10000 nM
5 | CCCN(CCC)c1ccc2nc(N(C)C)nc(N3CCC(c4ccccc4OC)CC3)c2c1 [Example 96, 4-(4-(2-methoxyphenyl)piperidin-1-yl)-N2,N2-dimethyl-N6,N6-dipropylquinazoline-2,6-diamine] | > 10000 nM
6 | CCOC(=O)CN(C)c1ccc2nc(C3CC3)nc(N3CCC(c4ccccc4OC)CC3)c2c1 [Example 90, ({2-cyclopropyl-4-[4-(2-methoxy-phenyl)-piperidin-1-yl]-quinazolin-6-yl}-methyl-amino)-acetic acid ethyl ester] | > 10000 nM
7 | CN(C)c1ccccc1C1CCN(c2nc(C3(C(F)(F)F)CC3)nc3ccc(N(C)CCN4CCOCC4)cc23)CC1 [Example 50, [4-[4-(2-dimethylamino-phenyl)-piperidin-1-yl]-2-(1-trifluoromethyl-cyclopropyl)-quinazolin-6-yl]-methyl-(2-morpholin-4-yl-ethyl)-amine] | > 10000 nM
8 | Cc1cc2nc(C3CC3)nc(N3CCC(c4ccccc4N(C)C)CC3)c2cc1N(C)CCO [Example 116, 2-({2-cyclopropyl-4-[4-(2-dimethylamino-phenyl)-piperidin-1-yl]-7-methyl-quinazolin-6-yl}-methyl-amino)-ethanol] | 500 to 2000 nM
9 | COc1ccccc1C1CCN(c2nc(C3CCCC3)nc3ccc(N(C)C)cc23)CC1 [Example 37, {2-cyclopentyl-4-[4-(2-methoxy-phenyl)-piperidin-1-yl]-quinazolin-6-yl}-dimethyl-amine] | > 10000 nM
10 | COc1ccccc1C1CCN(c2nc(C3(F)CC3)nc3cnc(N4CC[C@@H](O)C4)cc23)CC1 [Example 197, 1-{2-(1-Fluoro-cyclopropyl)-4-[4-(2-methoxy-phenyl)-piperidin-1-yl]-pyrido[3,4-d]pyrimidin-6-yl}-pyrrolidin-3-ol] | 500 to 2000 nM
11 | COc1nccnc1C1CCN(c2nc(C3(C)CC3)nc3c(F)cc(N(C)CCO)cc23)CC1 [Example 204, 2-{[8-Fluoro-4-[4-(3-methoxy-pyrazin-2-yl)-piperidin-1-yl]-2-(1-methyl-cyclopropyl)-quinazolin-6-yl]-methyl-amino}-ethanol] | 500 to 2000 nM
12 | CN(C)c1ccc2nc(C3CC3)nc(N3CCC(c4ccccc4N4CCC4)CC3)c2c1 [Example 3] | > 10000 nM
13 | CCOC(=O)CN(CC(=O)OCC)C1CCN(c2ccc3nc(C4CC4)nc(N4CCC(c5ccccc5OC)CC4)c3c2)CC1 [Example 92] | > 10000 nM
14 | COc1ccccc1C1CCN(c2nc(C3CC3)nc3ccc(N(C)CCO)c(F)c23)CC1 [Example 167, 2-({2-Cyclopropyl-5-fluoro-4-[4-(2-methoxy-phenyl)-piperidin-1-yl]-quinazolin-6-yl}-methyl-amino)-ethanol] | 500 to 2000 nM
15 | COc1ccccc1C1CCN(c2nc(C3CC3)nc3ccc(CN(C)CCO)cc23)CC1 [Example 89, 2-({2-cyclopropyl-4-[4-(2-methoxy-phenyl)-piperidin-1-yl]-quinazolin-6-ylmethyl}-methyl-amino)-ethanol] | > 10000 nM
16 | COc1ccccc1C1CCN(c2nc(C3CC3)nc3ccc(CN(C)CCN4CCOCC4)cc23)CC1 [Example 88, {2-cyclopropyl-4-[4-(2-methoxy-phenyl)-piperidin-1-yl]-quinazolin-6-ylmethyl}-methyl-(2-morpholin-4-yl-ethyl)-amine] | > 10000 nM

Second part, the compound after the results:

Row | EC50 | Compound
17 | 2000 to 10000 nM | CN(C)c1ccccc1C1CCN(c2nc(C3(C)CCCC3)nc3ccc(N(C)CCO)cc23)CC1 [Example 53, {[4-[4-(2-Dimethylamino-phenyl)-piperidin-1-yl]-2-(1-methyl-cyclopentyl)-quinazolin-6-yl]-methyl-amino}-ethanol]
18 | 2000 to 10000 nM | COc1ccccc1C1CCN(c2nc(C3CC3)nc3cc(N(C)CCO)ccc23)CC1 [Example 169, 2-({2-Cyclopropyl-4-[4-(2-methoxy-phenyl)-piperidin-1-yl]-quinazolin-7-yl}-methyl-amino)-ethanol]
19 | 2000 to 10000 nM | COc1ccccc1C1CCN(c2nc(C3(C)CCCC3)nc3ccc(N(C)CCO)cc23)CC1 [Example 51, 2-{[4-[4-(2-methoxy-phenyl)-piperidin-1-yl]-2-(1-methyl-cyclopentyl)-quinazolin-6-yl]-methyl-amino}-ethanol]
20 | 500 to 2000 nM | CN(CCO)c1ccc2nc(C3(F)CC3)nc(N3CCC(c4ccccc4OCCF)CC3)c2c1 [Example 225, 2-[(2-(1-Fluoro-cyclopropyl)-4-{4-[2-(2-fluoro-ethoxy)-phenyl]-piperidin-1-yl}-quinazolin-6-yl)-methyl-amino]-ethanol]
21 | < 500 nM | COc1ccccc1C1CCN(c2nc(C3(F)CCC3)nc3ccc(N(C)CCO)cc23)CC1 [Example 59, 2-({2-(1-fluoro-cyclobutyl)-4-[4-(2-methoxy-phenyl)-piperidin-1-yl]-quinazolin-6-yl}-methyl-amino)-ethanol]
22 | 500 to 2000 nM | COc1ccccc1C1CCN(c2nc(C3(F)CC3)nc3ccc(N4CC[C@H](O)C4)cc23)CC1 [Example 177, (S)-1-{2-(1-Fluoro-cyclopropyl)-4-[4-(2-methoxy-phenyl)-piperidin-1-yl]-quinazolin-6-yl}-pyrrolidin-3-ol]
23 | 500 to 2000 nM | CN(C)c1ccccc1C1CCN(c2nc(C3(C(F)(F)F)CC3)nc3ccc(N(C)CCO)cc23)CC1 [Example 49, 2-{[4-[4-(2-dimethylamino-phenyl)-piperidin-1-yl]-2-(1-trifluoromethyl-cyclopropyl)-quinazolin-6-yl]-methyl-amino}-ethanol]
24 | 500 to 2000 nM | COc1ccccc1C1CCN(c2nc(C3(F)CC3)nc3ccc(N(C)C)cc23)CC1 [Example 18, {2-(1-fluoro-cyclopropyl)-4-[4-(2-methoxy-phenyl)-piperidin-1-yl]-quinazolin-6-yl}-dimethyl-amine]
25 | 2000 to 10000 nM | COc1ccccc1C1CCN(c2nc(C#CC3CC3)nc3ccc(N(C)CCO)cc23)CC1 [Example 191, 2-({2-Cyclopropylethynyl-4-[4-(2-methoxy-phenyl)-piperidin-1-yl]-quinazolin-6-yl}-methyl-amino)-ethanol]
26 | < 500 nM | CN(C)c1ccccc1C1CCN(c2nc(C3(F)CCC3)nc3ccc(N(C)CCO)cc23)CC1 [Example 61, 2-{[4-[4-(2-dimethylamino-phenyl)-piperidin-1-yl]-2-(1-fluoro-cyclobutyl)-quinazolin-6-yl]-methyl-amino}-ethanol]
27 | 2000 to 10000 nM | COc1ccccc1C1CCN(c2nc(C3(C)CC3)nc3ccc(N(C)CCN4CCOCC4)cc23)CC1 [Example 34, 4-(4-(2-methoxyphenyl)piperidin-1-yl)-N-methyl-2-(1-methylcyclopropyl)-N-(2-morpholinoethyl) quinazolin-6-amine]
28 | > 10000 nM | COc1cc(I)ccc1C1CCN(c2nc(C3(F)CC3)nc3ccc(N(C)CCO)cc23)CC1 [Example 218]
29 | 2000 to 10000 nM | COc1ccccc1C1CCN(c2nc(C3CCCC3)nc3ccc(N(C)CCO)cc23)CC1 [Example 38, 2-({2-cyclopentyl-4-[4-(2-methoxy-phenyl)-piperidin-1-yl]-quinazolin-6-yl}-methyl-amino)-ethanol]
